The values that follow come from ChEMBL document CHEMBL1149133, “3,3-diaryl-1,3-dihydroindol-2-ones as antiproliferatives mediated by translation initiation inhibition” (2004).

The test system of one assay is Lung cancer cell line. Kind of assay: In vitro anticancer activity against human lung cancer cell line. The assay is classed as functional.
Assay [1] can be described thus: Compound evaluated for their ability to phosphorylate eIF2R. The assay is classed as functional. Further details: unit not given here.

Broadly, the GI50 is the concentration at which growth is held to half of that of the control.

`CC(C)(C)c1ccc(C2(c3ccccc3O)C(=O)Nc3ccccc32)cc1` (stereo not given) came in with a GI50 with Lung cancer cell line of 7 µM. The same compound came in with an Activity in assay [1] of 1.33.

In assay [1], `O=C1Nc2ccccc2C1(c1ccccc1)c1ccccc1O` (stereo not given) displayed an Activity of 0.56.

`O=C1Nc2ccc([N+](=O)[O-])cc2C1(c1ccccc1)c1ccccc1` gave a GI50 in the assay on Lung cancer cell line of 14 µM. Besides, in assay [1], the Activity was 1.2.

`O=C1Nc2ccc(S(=O)(=O)O)cc2C1(c1ccccc1)c1ccccc1` had a GI50 in the assay on Lung cancer cell line of 9 µM.

`CCc1ccc2c(c1)C(c1ccccc1)(c1ccccc1)C(=O)N2` had a GI50 in the assay on Lung cancer cell line greater than 20 µM. In addition, the Activity in assay [1] was 0.85.

Compound `CN1C(=O)C(c2ccccc2)(c2ccccc2)c2ccccc21` registered a GI50 in the assay with Lung cancer cell line greater than 20 µM.

As for `CC(C)(C)c1cccc(C2(c3ccccc3)C(=O)Nc3ccccc32)c1` (stereo not given), growth in the assay on Lung cancer cell line was halved (GI50) at 4 µM. This compound yielded an Activity in assay [1] of 1.04.

In assay [1], `O=C1Nc2ccc(Br)cc2C1(c1ccccc1)c1ccccc1` yielded an Activity of 0.79.

`O=C1Nc2ccccc2C1(c1ccccc1)c1ccccc1` showed a GI50 in the assay with Lung cancer cell line of 13 µM. Also, the Activity in assay [1] came to 1.

`CC(C)(C)c1ccc(C2(c3ccccc3)C(=O)Nc3ccccc32)cc1` (stereo not given): in the assay with Lung cancer cell line, the GI50 stood at 8 µM. Further, the Activity in assay [1] was 0.95.

In turn, `COc1ccccc1C1(c2ccc(C(C)(C)C)cc2)C(=O)Nc2ccccc21` (stereo not given) gave an Activity in assay [1] of 0.93.

`O=C1Nc2ccccc2C1(c1ccccc1)c1ccc(O)cc1` (stereo not given) gave an Activity in assay [1] of 0.86.

With `O=C1Nc2cc(Br)ccc2C1(c1ccccc1)c1ccccc1`, the Activity in assay [1] was 0.89.

As to `COc1ccccc1C1(c2ccccc2)C(=O)Nc2ccccc21` (stereo not given), in assay [1], the Activity was found to be 0.48.

In the assay on Lung cancer cell line, `O=C1Nc2ccc(I)cc2C1(c1ccccc1)c1ccccc1` registered a GI50 of 8 µM. This compound yielded an Activity in assay [1] of 1.31.

For the compound `CC(C)(C)c1ccc(C2(c3ccc(O)cc3)C(=O)Nc3ccccc32)cc1` (stereo not given), the GI50 in the assay on Lung cancer cell line worked out at 14 µM. Besides, the Activity in assay [1] turned out to be 2.01.

The compound `CC(C)(C)c1ccc(O)c(C2(c3ccccc3)C(=O)Nc3ccccc32)c1` (stereo not given) displayed a GI50 in the assay on Lung cancer cell line of 4 µM. The compound also had an Activity in assay [1] of 2.

On to `O=C1Nc2cccc(Br)c2C1(c1ccccc1)c1ccccc1`, for which, in assay [1], the Activity amounted to 0.84.

As for `O=C1Nc2ccc(Cl)cc2C1(c1ccccc1)c1ccccc1`, the Activity in assay [1] was found to be 0.61.

`O=C1Nc2ccc(F)cc2C1(c1ccccc1)c1ccccc1` showed an Activity in assay [1] of 0.44.

Turning to `CC(C)(C)c1ccc(O)c(C2(c3ccccc3)C(=O)Nc3ccc(I)cc32)c1` (stereo not given), the Activity in assay [1] was 1.4.
